Experimental data from patent publication US20240382482A1, “PLASMA KALLIKREIN INHIBITORS” (TAKEDA PHARMACEUTICAL COMPANY LIMITED, priority 2021, published 2024).

Key:
[1] = molecular target: human activated kallikrein enzyme (Homo sapiens, UniProt P03952); assay: Inhibition of human activated kallikrein enzyme, fluorogenic peptide substrate assay (500 pM enzyme format); type: biochemical; details: 500 pM activated kallikrein, 300 μM PFR-AMC substrate, 30 min preincubation, 10 min reaction, room temperature; read-out: Primary Dose Response Assay: Average EC50
Method in brief: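 500 pM enzyme preincubated 30 min at room temperature with inhibitor in 20 mM Tris pH 7.5, 150 mM NaCl, 1 mM EDTA, 0.1% PEG-400, 0.1% Triton X-100. Reaction started with 300 μM PFR-AMC and run 10 min at room temperature. AMC fluorescence read at ex 380/em 460 nm, and EC50 values reported as ranges.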

[2] = molecular target: T1, plasma kallikrein (Homo sapiens, UniProt P03952); assay: Neat human plasma assay (fluorogenic peptide), contact pathway-activated plasma; type: biochemical; details: sodium citrate human plasma (78% final), 10 nM human FXIIa, 100 μM PFR-AMC, room temperature
T1 construct: added to sodium citrate collected human or rat plasma in a 96-well microplate; from tissue
Protocol: To analyze inhibition of plasma kallikrein in an ex vivo setting, the potency of compounds was measure in contact pathway-activated plasma assays. In a fluorogenic peptide substrate assay, test compounds dissolved in DMSO were added to sodium citrate collected human or rat plasma in a 96-well microplate. Alternatively, citrated plasma was collected from rats administered the compounds orally or by IV. 10 nM of human FXIIa (Enzyme Research Laboratories) diluted in PKa buffer (20 mM Tris-HCl, pH 7.5, 150 mM NaCl, 1 mM EDTA, 0.1% PEG-8000, and 0.1% Triton X-100) was added to the plasma, followed by the 100 μM of the profluorescent, synthetic plasma kallikrein substrate PFR-AMC (also diluted in PKa buffer). Final plasma concentration in the reaction was 78%. Fluorescence was immediately monitored by excitation/emission wavelengths of 360 nm/480 nm respectively over a period of 5 minutes in a microplate reader. The resulting linear increase in fluorescence emission (reflecting PKa proteolysis of PFR-AMC substrate) was fit to extract a proteolytic rate (fluorescent units over time), and this rate was subsequently plotted against compound inhibitor concentration. Resulting plots were fit to a standard 4-parameter IC50/IC90 equation to determine min/max values, IC50/90, and slope. All experimental steps were performed at room temperature.

Sequence of human activated kallikrein enzyme (P03952 391-638 limits assumed): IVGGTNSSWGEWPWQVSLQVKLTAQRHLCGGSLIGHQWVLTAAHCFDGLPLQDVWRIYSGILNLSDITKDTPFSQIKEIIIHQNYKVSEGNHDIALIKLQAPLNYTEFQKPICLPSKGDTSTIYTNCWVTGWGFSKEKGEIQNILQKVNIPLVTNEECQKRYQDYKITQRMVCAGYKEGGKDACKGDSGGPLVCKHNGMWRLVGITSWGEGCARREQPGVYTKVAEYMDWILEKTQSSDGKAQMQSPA
Sequence of human activated kallikrein enzyme (P03952 20-390 partner limits assumed): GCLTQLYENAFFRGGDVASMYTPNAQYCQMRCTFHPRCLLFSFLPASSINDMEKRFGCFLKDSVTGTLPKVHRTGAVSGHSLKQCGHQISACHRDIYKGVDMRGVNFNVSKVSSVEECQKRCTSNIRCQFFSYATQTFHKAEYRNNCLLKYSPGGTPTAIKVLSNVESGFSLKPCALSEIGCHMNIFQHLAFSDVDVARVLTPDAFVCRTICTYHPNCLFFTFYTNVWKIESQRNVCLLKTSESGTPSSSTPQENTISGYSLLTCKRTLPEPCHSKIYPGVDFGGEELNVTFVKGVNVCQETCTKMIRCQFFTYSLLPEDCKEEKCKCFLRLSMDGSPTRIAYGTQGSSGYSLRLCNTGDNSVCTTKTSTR
T1 sequence (P03952 391-638 limits assumed): as the sequence (P03952 391-638 limits assumed) above
T1 sequence (P03952 20-390 partner limits assumed): as the sequence (P03952 20-390 partner limits assumed) above

EC50 [1] | IC90 [2] | SMILES
≤ 5 nM | ≤ 500 nM | CN1CCN(c2cc(C3CC3)cn3cc(CNc4cc(NC(=O)Cc5ncn6ccc(Cl)cc56)ncn4)nc23)CC1 [Example 17, 2-(7-chloroimidazo[1,5-a]pyridin-1-yl)-N-(6-(((6-cyclopropyl-8-(4-methylpiperazin-1-yl)imidazo[1,2-a]pyridin-2-yl)methyl)amino)pyrimidin-4-yl)acetamide]
≤ 5 nM | 5000 to 25000 nM | O=C(Cc1n[nH]c2ccc(Cl)cc12)Nc1cc(NCc2cn3cc(C4CC4)ccc3n2)ccn1 [Example 26, 2-(5-chloro-1H-indazol-3-yl)-N-(4-(((6-cyclopropylimidazo[1,2-a]pyridin-2-yl)methyl)amino)pyridin-2-yl)acetamide]
≤ 5 nM | 500 to 5000 nM | O=C(Cc1ncn2ccc(Cl)cc12)Nc1cc(NCc2cn3cc(C4CC4)ccc3n2)cnn1 [Example 31, 2-(7-chloroimidazo[1,5-a]pyridin-1-yl)-N-(5-(((6-cyclopropylimidazo[1,2-a]pyridin-2-yl)methyl)amino)pyridazin-3-yl)acetamide]
≤ 5 nM | ≤ 500 nM | O=C(Cc1ncn2ccc(Cl)cc12)Nc1cc(NCc2cn3cc(C4CC4)cc(CO)c3n2)ccn1 [Example 52, 2-(7-chloroimidazo[1,5-a]pyridin-1-yl)-N-(4-(((6-cyclopropyl-8-(hydroxymethyl)imidazo[1,2-a]pyridin-2-yl)methyl)amino)pyridin-2-yl)acetamide]
≤ 5 nM | 5000 to 25000 nM | Cc1cc(N)nc(C)c1CNc1cc(OCc2cn3cc(C4CC4)ccc3n2)ncn1 [Example 107, N-((6-amino-2,4-dimethylpyridin-3-yl)methyl)-6-((6-cyclopropylimidazo[1,2-a]pyridin-2-yl)methoxy)pyrimidin-4-amine]
≤ 5 nM | ≤ 500 nM | Cc1cc(N)nc(C)c1CNc1cc(OCc2cn3cc(C4CC4)cc(C4(F)COC4)c3n2)ncn1 [Example 109, N-((6-amino-2,4-dimethylpyridin-3-yl)methyl)-6-((6-cyclopropyl-8-(3-fluorooxetan-3-yl)imidazo[1,2-a]pyridin-2-yl)methoxy)pyrimidin-4-amine]
500 to 9000 nM | – | COc1ccc(CNc2cc(NCc3cn4cc(C5CC5)ccc4n3)ncn2)c(OC)c1 [Example 136, N^4-((6-cyclopropylimidazo[1,2-a]pyridin-2-yl)methyl)-N^6-(2,4-dimethoxybenzyl)pyrimidine-4,6-diamine]
500 to 9000 nM | – | Clc1cccc([C@H]2C[C@@H]2CNc2cc(NCc3cn4cc(C5CC5)ccc4n3)ncn2)c1 [Example 138, N^4-(((1S,2S)-2-(3-chlorophenyl)cyclopropyl)methyl)-N^6-((6-cyclopropylimidazo[1,2-a]pyridin-2-yl)methyl)pyrimidine-4,6-diamine]
50 to 500 nM | – | O[C@H]1C[C@H](c2cn3cc(C4CC4)ccc3n2)N(c2cc(NCc3cc4c(Cl)c[nH]c4cc3F)ncn2)C1 [Example 139, (3S,5R)-1-(6-(((3-chloro-6-fluoro-1H-indol-5-yl)methyl)amino)pyrimidin-4-yl)-5-(6-cyclopropylimidazo[1,2-a]pyridin-2-yl)pyrrolidin-3-ol]
500 to 9000 nM | – | O[C@H]1C[C@H](c2cn3cc(C4CC4)ccc3n2)N(c2cc(NCc3cc4cc[nH]c4cc3F)ncn2)C1 [Example 140, (3S,5R)-5-(6-cyclopropylimidazo[1,2-a]pyridin-2-yl)-1-(6-(((6-fluoro-1H-indol-5-yl)methyl)amino)pyrimidin-4-yl)pyrrolidin-3-ol]
≤ 5 nM | 500 to 5000 nM | CN1C(=O)CN(c2cc(C3CC3)cn3cc(CNc4cc(NC(=O)Cc5ncn6ncc(Cl)cc56)ncn4)nc23)C1=O [Example 141, 2-(3-chloroimidazo[1,5-b]pyridazin-5-yl)-N-(6-(((6-cyclopropyl-8-(3-methyl-2,4-dioxoimidazolidin-1-yl)imidazo[1,2-a]pyridin-2-yl)methyl)amino)pyrimidin-4-yl)acetamide]

More lines, now with the values behind:

SMILES | EC50 [1] | IC90 [2]
O=C(Cc1ncn2ccc(Cl)cc12)Nc1cc(NCc2cn3cc(C4CC4)ccc3n2)ncn1 [Example 1, 2-(7-chloroimidazo[1,5-a]pyridin-1-yl)-N-(6-(((6-cyclopropylimidazo[1,2-a]pyridin-2-yl)methyl)amino)pyrimidin-4-yl)acetamide] | ≤ 5 nM | 500 to 5000 nM
O=C(Cc1ncn2ccc(Cl)cc12)Nc1cc(NCc2cn3cc(C4CC4)cc(N4CCCC4=O)c3n2)ncn1 [Example 12, 2-(7-chloroimidazo[1,5-a]pyridin-1-yl)-N-(6-(((6-cyclopropyl-8-(2-oxopyrrolidin-1-yl)imidazo[1,2-a]pyridin-2-yl)methyl)amino)pyrimidin-4-yl)acetamide] | ≤ 5 nM | 500 to 5000 nM
O=C(Cc1ncn2ccc(Cl)cc12)Nc1cc(NCc2cn3cc(C4CC4)cc(C4(O)COC4)c3n2)ncn1 [Example 14, 2-(7-chloroimidazo[1,5-a]pyridin-1-yl)-N-(6-(((6-cyclopropyl-8-(3-hydroxyoxetan-3-yl)imidazo[1,2-a]pyridin-2-yl)methyl)amino)pyrimidin-4-yl)acetamide] | ≤ 5 nM | ≤ 500 nM
N#Cc1cc(C2CC2)cn2cc(CNc3ccnc(NC(=O)Cc4ncn5ccc(Cl)cc45)c3)nc12 [Example 30, 2-(7-chloroimidazo[1,5-a]pyridin-1-yl)-N-(4-(((8-cyano-6-cyclopropylimidazo[1,2-a]pyridin-2-yl)methyl)amino)pyridin-2-yl)acetamide] | ≤ 5 nM | 500 to 5000 nM
COc1ccc(-n2cnnn2)c(CNc2cc(NCc3cn4cc(C5CC5)ccc4n3)ncn2)c1F [Example 55, N^4-((6-cyclopropylimidazo[1,2-a]pyridin-2-yl)methyl)-N^6-(2-fluoro-3-methoxy-6-(1H-tetrazol-1-yl)benzyl)pyrimidine-4,6-diamine] | ≤ 5 nM | 500 to 5000 nM
Cc1cc(N)nc(C)c1CNc1cc(OCc2cn3cc(C4CC4)ccc3n2)ccn1 [Example 110, 5-(((4-((6-cyclopropylimidazo[1,2-a]pyridin-2-yl)methoxy)pyridin-2-yl)amino)methyl)-4,6-dimethylpyridin-2-amine] | ≤ 5 nM | 5000 to 25000 nM
Cc1cc(N)nc(C)c1CNc1cc(OCc2cn3cc(C4CC4)cc(C#N)c3n2)ncn1 [Example 112, 2-(((6-(((6-amino-2,4-dimethylpyridin-3-yl)methyl)amino)pyrimidin-4-yl)oxy)methyl)-6-cyclopropylimidazo[1,2-a]pyridine-8-carbonitrile] | ≤ 5 nM | 500 to 5000 nM
Cc1cc(N)nc(C)c1CNc1cc(OCc2cn3cc(C4CC4)cc(CO)c3n2)ncn1 [Example 113, (2-(((6-(((6-amino-2,4-dimethylpyridin-3-yl)methyl)amino)pyrimidin-4-yl)oxy)methyl)-6-cyclopropylimidazo[1,2-a]pyridin-8-yl)methanol] | ≤ 5 nM | 5000 to 25000 nM
Cc1cc(N)nc(C)c1CNc1cc(N2C[C@@H](O)C[C@@H]2c2cn3cc(C4CC4)ccc3n2)ncn1 [Example 135, (3S,5R)-1-(6-(((6-amino-2,4-dimethylpyridin-3-yl)methyl)amino)pyrimidin-4-yl)-5-(6-cyclopropylimidazo[1,2-a]pyridin-2-yl)pyrrolidin-3-ol] | ≤ 5 nM | ≤ 500 nM
O[C@H]1C[C@H](c2cn3cc(C4CC4)ccc3n2)N(c2cc(NCc3cnc4[nH]cc(Cl)c4c3)ncn2)C1 [Example 137, (3S,5R)-1-(6-(((3-chloro-1H-pyrrolo[2,3-b]pyridin-5-yl)methyl)amino)pyrimidin-4-yl)-5-(6-cyclopropylimidazo[1,2-a]pyridin-2-yl)pyrrolidin-3-ol] | 50 to 500 nM | –
